Tests used:
[1] = system: MES-induced seizure spread; test: Maximal Electroshock Seizure (MES) test, mice i.p.; format: in vivo; conditions: for MES, number of animals protected / total number of animals tested: mice i.p.
Text: (§1) The fluoro derivatives synthesized were submitted to the National Institute of Neurological Disorders and Stroke (NINDS) for evaluation in a standard panel of assays. Two convulsant tests (MES and scMET), and a toxicity screen (rotorod in mice, positional sense and gait in rats) were employed for evaluating the compounds activity as neuroprotecting agents. These testing procedures are described in detail in Molecular and Cellular Targets for Anti-epileptic Drugs, eds. G. Avanzini, G. Regesta, P. Tanganelli, M. Avoli, 1997, John Libbey & Company Ltd, pp 191-198. The felbamate derivatives were evaluated for anticonvulsant activity following intraperitoneal (i.p.) administration in mice and oral administration in rats.
The MES test is a model for generalized tonic-clonic seizures and is used to identify compounds which prevent seizure spread. The behavioral and electrographic seizures generated in this model are consistent with the human disorder. In the MES test, an electrical stimulus of 0.2 s in duration (50 mA in mice and 150 mA in rat at 60Hz) was delivered via corneal electrodes primed with an electrolyte solution containing an anesthetic agent. […] Rats were tested at time intervals between 0.25 and 4 hours following a standard oral dose of 30 mg/kg. Abolition of the hindlimb tonic extensor component indicates the test compound's ability to inhibit MES-induced seizure spread.
(§2) For the MES and scMET tests the data is presented in the form of the number of animals protected by the administered compound / total number of animals tested. […] Qualitative data was obtained for fluoro felbamate 12 (Tables 1 and 2A), fluoro monocarbamate felbamate 13 (Tables 1 and 2B), and fluorodioxo 16 (Tables 1 and 2C) and for cyclic felbamate 21 (Tables 5 and 6B) and cyclic monocarbamate 22 (Tables 5 and 6A). More extensive quantitative data was also obtained for fluoro felbamate 12 in mice (Table 3) and rats (Table 4).

[2] = system: pentylenetetrazol; test: Subcutaneous Metrazol seizure test (scMET), mice i.p.; format: in vivo, Carworth Farms No. 1 mice; conditions: mice i.p.
Text: as §1
This is a model that primarily identifies compounds that raise seizure threshold. With some minor exceptions, the pharmacological profile of the scMET seizure model is consistent with the human condition. The scMET test utilizes a dose of pentylenetetrazol (85 mg/kg in Carworth Farms No. 1 mice and 70 mg/kg in Sprague-Dawley rats) that induces clonic seizures lasting for a period of at least five seconds in 97 % (CD97) of animals tested. At the anticipated time of testing the convulsant is administered subcutaneously. The test compound is administered intraperitoneally in mice and orally in rats. Animals are observed over a 30 minute period. Absence of clonic spasms in the observed time period indicates a compound's ability to abolish the effect of pentylenetetrazol on seizure threshold.
as §2

[3] = system: rats; test: Minimal neurotoxicity (TOX), positional sense and gait and stance tests, rats p.o.; format: in vivo; conditions: rat p.o., 30 mg/kg
Text: as §1, with “G. Avanzini, G. Regesta, P. Tanganelli, M. Avoli, 1997, John Libbey & Company Ltd, pp 191-198.” left out
Rats are examined for behavioral toxicity by the positional sense test and a gait and stance test. […] In the gait and stance test, neurotoxicity is indicated by a circular or zigzag gait, ataxia, abnormal spread of the legs, abnormal posture, tremor hyperactivity, lack of exploratory behavior, somnolence, stupor or catalepsy. […]

[4] = system: MES-induced seizure spread; test: Maximal Electroshock Seizure (MES) test, rats p.o.; format: in vivo, rat; conditions: for MES, number of animals protected / total number of animals tested: rat p.o., 30 mg/kg; for anti-seizure activity (in words): rats
Text: as §1
The MES test is a model for generalized tonic-clonic seizures and is used to identify compounds which prevent seizure spread. The behavioral and electrographic seizures generated in this model are consistent with the human disorder. In the MES test, an electrical stimulus of 0.2 s in duration (50 mA in mice and 150 mA in rat at 60Hz) was delivered via corneal electrodes primed with an electrolyte solution containing an anesthetic agent. Mice were tested at 30 minutes and 4 hours following doses of 30, 100 and 300 mg/kg of test compound. Rats were tested at time intervals between 0.25 and 4 hours following a standard oral dose of 30 mg/kg. Abolition of the hindlimb tonic extensor component indicates the test compound's ability to inhibit MES-induced seizure spread.
as §2

[5] = system: mice; test: Minimal neurotoxicity (TOX), rotorod test, mice i.p.; format: in vivo; conditions: mice i.p.
Text: as §1, with “G. Avanzini, G. Regesta, P. Tanganelli, M. Avoli, 1997, John Libbey & Company Ltd, pp 191-198.” left out, “rats. […]” for “rats.”

Row | Structure (SMILES) | MES, number of animals protected / total number of animals tested ([1]; 30 mg/kg, 0.5h) | MES, number of animals protected / total number of animals tested ([1]; 100 mg/kg, 0.5h) | MES, number of animals protected / total number of animals tested ([1]; 300 mg/kg, 0.5h) | ScMET, number of animals protected / total number of animals tested ([2]; 30 mg/kg, 0.5h) | ScMET, number of animals protected / total number of animals tested ([2]; 100 mg/kg, 0.5h) | ScMET, number of animals protected / total number of animals tested ([2]; 300 mg/kg, 0.5h) | TOX, number of animals exhibiting toxic effects / total number of animals tested ([3]; 0.25h) | TOX, number of animals exhibiting toxic effects / total number of animals tested ([3]; 0.5h) | TOX, number of animals exhibiting toxic effects / total number of animals tested ([3]; 1.0h) | TOX, number of animals exhibiting toxic effects / total number of animals tested ([3]; 2.0h) | TOX, number of animals exhibiting toxic effects / total number of animals tested ([3]; 4.0h) | MES, number of animals protected / total number of animals tested ([4]; 0.25h) | MES, number of animals protected / total number of animals tested ([4]; 0.5h) | MES, number of animals protected / total number of animals tested ([4]; 1.0h) | MES, number of animals protected / total number of animals tested ([4]; 2.0h) | MES, number of animals protected / total number of animals tested ([4]; 4.0h) | anti-seizure activity (in words) [4] | TOX, number of animals exhibiting toxic effects / total number of animals tested ([5]; 30 mg/kg, 0.5h) | TOX, number of animals exhibiting toxic effects / total number of animals tested ([5]; 100 mg/kg, 0.5h) | TOX, number of animals exhibiting toxic effects / total number of animals tested ([5]; 300 mg/kg, 0.5h) | other results
1 | O=C1NC(O)C(c2ccccc2)CO1 (stereo not shown) [Cyclic MCF] | 0/1 | 0/3 | 1/1 | 0/1 | 2/5 | 2/5 | 0/4 | 0/4 | 0/4 | 0/4 | 0/4 | 0/4 | 0/4 | 1/4 | 2/4 | 3/4 | potent activity | 0/4 | 0/8 | 0/4 | MES, number of animals protected / total number of animals tested ([1]; 30 mg/kg, 2.0h): 0/1; MES, number of animals protected / total number of animals tested ([1]; 100 mg/kg, 2.0h): 2/3; MES, number of animals protected / total number of animals tested ([1]; 300 mg/kg, 2.0h): 1/1; ScMET, number of animals protected / total number of animals tested ([2]; 30 mg/kg, 2.0h): 0/1; ScMET, number of animals protected / total number of animals tested ([2]; 100 mg/kg, 2.0h): 0/1; ScMET, number of animals protected / total number of animals tested ([2]; 300 mg/kg, 2.0h): 0/1; TOX, number of animals exhibiting toxic effects / total number of animals tested ([5]; 30 mg/kg, 2.0h): 0/2; TOX, number of animals exhibiting toxic effects / total number of animals tested ([5]; 100 mg/kg, 2.0h): 0/4; TOX, number of animals exhibiting toxic effects / total number of animals tested ([5]; 300 mg/kg, 2.0h): 0/2
2 | O=C1NC(=O)C(F)(c2ccccc2)CO1 (stereo not shown) [fluoro dioxo, 5-Fluoro-5-phenyl-1,3-oxazinane-2,4-dione] | 0/1 | 0/3 | 0/1 | 0/1 | 0/1 | 0/1 | 0/4 | 0/4 | 0/4 | 0/4 | 0/4 | 0/4 | 1/4 | 1/4 | 1/4 | 2/4 | strong anti-seizure activity | 0/4 | 0/8 | 1/4 | anti-seizure activity (in words) ([1]; mice): inactive; MES, number of animals protected / total number of animals tested ([1]; 30 mg/kg, 4.0h): 0/1; MES, number of animals protected / total number of animals tested ([1]; 100 mg/kg, 4.0h): 0/3; MES, number of animals protected / total number of animals tested ([1]; 300 mg/kg, 4.0h): 0/1; ScMET, number of animals protected / total number of animals tested ([2]; 30 mg/kg, 4.0h): 0/1; ScMET, number of animals protected / total number of animals tested ([2]; 100 mg/kg, 4.0h): 0/1; ScMET, number of animals protected / total number of animals tested ([2]; 300 mg/kg, 4.0h): 0/1; TOX, number of animals exhibiting toxic effects / total number of animals tested ([5]; 30 mg/kg, 4.0h): 0/2; TOX, number of animals exhibiting toxic effects / total number of animals tested ([5]; 100 mg/kg, 4.0h): 0/4; TOX, number of animals exhibiting toxic effects / total number of animals tested ([5]; 300 mg/kg, 4.0h): 0/2
3 | NC(=O)OCC(F)(CO)c1ccccc1 (stereo not shown) [fluoro monocarbamate felbamate, 2-Fluoro-2-phenyl-1,3-propanediol monocarbamate] | 0/1 | 2/3 | 1/1 | 0/1 | 0/1 | 1/1 | 0/4 | 0/4 | 0/4 | 0/4 | 0/4 | 0/4 | 3/4 | 0/4 | 1/4 | 0/4 | – | 0/4 | 3/8 | 2/4 | MES, number of animals protected / total number of animals tested ([1]; 30 mg/kg, 4.0h): 0/1; MES, number of animals protected / total number of animals tested ([1]; 100 mg/kg, 4.0h): 0/3; MES, number of animals protected / total number of animals tested ([1]; 300 mg/kg, 4.0h): 0/1; MES protection (in words) ([1]; mice, 100 mg/kg): moderate MES protection; ScMET, number of animals protected / total number of animals tested ([2]; 30 mg/kg, 4.0h): 0/1; ScMET, number of animals protected / total number of animals tested ([2]; 100 mg/kg, 4.0h): 0/1; ScMET, number of animals protected / total number of animals tested ([2]; 300 mg/kg, 4.0h): 0/1; TOX, number of animals exhibiting toxic effects / total number of animals tested ([5]; 30 mg/kg, 4.0h): 0/2; TOX, number of animals exhibiting toxic effects / total number of animals tested ([5]; 100 mg/kg, 4.0h): 0/4; TOX, number of animals exhibiting toxic effects / total number of animals tested ([5]; 300 mg/kg, 4.0h): 0/2

Reference: patent EP1282414B1, “FELBAMATE DERIVED COMPOUNDS FOR TREATING NEUROPATHIC PAIN” (University of Virginia Patent Foundation, priority 2000, dated 2001)
